Data on 4 compounds can be found in patent US12521397B2, “Nucleotide analogs” (The Regents of the University of California, priority 2014, dated 2026).

Where two headings read alike, the source gives them in different places.

The EC50 is the midpoint of the concentration-response curve. In general, CC50 refers to the concentration at which the toxic effect on the cells reaches its halfway point. As a reminder, the EC90 is the point of the concentration-response curve where the effect stands at 90%.

Data set [1] relates to HPV-11. Briefly: Low risk HPV origin plasmid replication assay (qPCR) in HEK 293 cells. Format: cell-based, human papillomavirus. How it is done: (§1) An origin-containing low risk or high risk HPV plasmid was co-transfected with homologous E1 and E2 protein expression vectors into HEK 293 cells. At 4 h post-transfection, cells were treated with test compound dilutions and then incubated for 48 h. HPV origin plasmid replication was detected after digestion with DpnI and exonuclease III to remove unreplicated transfected plasmids. Remaining replicated DNA was quantified by quantitative real time PCR (qPCR). In a parallel experiment in uninfected cells cytotoxicity was determined by trypan blue exclusion or CELLTITER-GLO® to find the concentration that reduced viable cell number by 50% (CC50). CC50 values were determined by trypan blue exclusion or CELLTITER-GLO® and the selectivity index calculated (Selectivity index=CC50/EC50). The low risk HPV tested was HPV-11, and the high-risk HPV tested was HPV-16 and HPV-18.

Data set [2] has as its system HPV-16 and HPV-18. Briefly: High risk HPV origin plasmid replication assay (qPCR) in HEK 293 cells. As to conditions: read-out: High Risk (EC50). Format: cell-based, human papillomavirus. As to the method: as §1
For orientation: Quantitative PCR measures a nucleic acid by following its amplification.

For data set [3], the system named is human foreskin fibroblast (HFF) cells. Briefly: Cytotoxicity assay in primary human foreskin fibroblast cells (CellTiter-Glo). Format: cell-based. Particulars: 7d incubation. How it is done: Cytotoxicity Assays in Primary Human Foreskin Fibroblast Cells. Cytotoxicity was also evaluated in human foreskin fibroblast (HFF) cells as they are a highly sensitive indicator of toxicity in a standard assay with 7 d of compound exposure. A total of 4000 cells/well are seeded in 384-well plates in cell culture media containing 2% fetal bovine serum and antibiotics. Following a 24 h incubation, 5-fold compound dilutions are performed in duplicate wells directly in the plates containing monolayers of HFF cells. At 7 d following compound addition, CellTiter-Glo reagent is added to each well and resulting luminescence is measured on a luminometer to assess the number of viable cells in each well. Data are then used to calculate CC50 values.
Background: In ATP-based viability assays light output follows the ATP content of the culture.

Data set [4] relates to HEK-293 cells. Put plainly: Cytotoxicity assay in HEK-293 cells (trypan blue exclusion or CellTiter-Glo). Format: cell-based. How it is done: as §1
Cytotoxicity Assays in HEK-293 cells. Cytotoxicity assays are performed in concurrently with every antiviral assay using the same cell line and media to ensure the same compound exposure. For the antiviral studies against HPV11 in HEK-293 cells, transfected cells are seeded in duplicate plates. […] At 48 h following compound addition, CELLTITER-GLO® (Promega) is added to each well and luminescence is determined on a luminometer. […]

Where [5] appears, read: low risk HPV tested was HPV-11, HEK 293 cells, 48 h incubation, read-out: Low Risk (EC50).

Consider `CCCCCCCCCCCCCCCCCCOCC(COP(=O)(O)COCCn1cnc2c(=O)[nH]c(N)nc21)OCc1ccccc1` (stereo not shown) [ODBG-PMEG, 1-O-Octadecyl-2-O-benzyl-sn-glyceryl PMEG], for which the 50% effective concentration (EC50) in data set [1] (Human papillomavirus, HEK293, low risk HPV tested was HPV-11, HEK 293 cells, 48 h incubation, read-out: Low Risk (EC50)) is 0.3 to 3 µM; in data set [2] (Human papillomavirus, HEK293, 48 h) it was 0.3 to 3 µM.
Regarding `CCCCCCCCCCCCCCCCCCOCCOP(=O)(O)COCCn1cnc2c(=O)[nH]c(N)nc21` [ODE-PMEG, Octadecyloxyethyl-Phosphonomethoxyethylguanine], the half-maximal effective concentration (EC50) in data set [1] (setting [5]) was under 0.3 µM; in data set [2] (high-risk HPV tested was HPV-16 and HPV-18, HEK 293 cells, 48 h incubation) it was under 0.3 µM.
With `CCOC(=O)[C@H](C)NP(=O)(COCCn1cnc2c(=O)[nH]c(N)nc21)Oc1ccccc1` (stereo partly shown) [PMEG phenoxy amidate Example 10], the CC50 in data set [3] is 70.9 ± 4.07 µM; in data set [4] (CellTiter-Glo, 2d incubation, read-out: Cytotoxicity CC50, HEK 293 (2d incubation)), over 100 µM; in data set [4] (Table B, HEK-293 cells, parallel to HPV-11 antiviral assay, read-out: CC50), over 100 µM. The same compound had an EC50 in data set [1] (Human papillomavirus, HEK293) of 7.56 ± 0.63 µM. The compound further gave a concentration for an effect of 90% (EC90) in data set [1] (Human papillomavirus, HEK293) of over 100 µM.
For `Nc1nc2c(ncn2CCOCP(=O)(O)O)c(=O)[nH]1` [PMEG, 9-(2-phosphonylmethoxyethyl) guanine, reference compound], the 50% effective concentration (EC50) in data set [1] (setting [5]) was 3 to 30 µM.
